Data reported in US20260315567A1, “POLYMERIC LEUPROLIDE ACETATE FORMULATIONS” (Tolmar International Limited, priority 2023, published 2026).

Legend:
[1] = LA gelation studies of drug solutions (e-beam irradiated, 60 °C with agitation, inversion test); assay type: physicochemical; settings: 150 rpm, up to 16 days, leuprolide acetate content
Protocol: Drug solutions were prepared as described above and filled into syringes or glass vials. Syringes were untreated, contained various amounts of silicone, or were plasma coated for lubrication. Samples were irradiated by e-beam irradiation at not less than 25 kGy and stored at accelerated conditions of 60° C. with agitation at 150 rpm for up to 16 days. Samples were inspected periodically to determine if the drug solution remained a solution or had formed a solid/gel by an inversion test. Samples that had “gelled” were transferred to 5° C. for subsequent testing.
The gelation rate for each sample was calculated as Rate=1/(simulated 5° C. age at time of gelation in days). The Arrhenius equation was used to determine the simulated age, assuming standard reaction rate doubling for every 10° C. increase in temperature. […] Data was analyzed using JMP. […] Container type and lubrication were not significant.
Samples were tested for leuprolide content by HPLC. Leuprolide content was then converted to leuprolide acetate by multiplying by 1.078 (based on molecular mass ratios). A marked difference in leuprolide acetate content between the gelled and non-gelled samples was seen, with the tipping point between solution and solid/gelled samples occurring at about 45% LA.

[2] = Solubility of LA in organic solvent; assay type: physicochemical; settings: in NMP or DMSO
Description: To produce the drug/solvent bulk solution comprising the API (LA), the desired amount of the LA was combined with the solvent NMP or DMSO or combination of solvents with or without a co-solvent or other additives, in the indicated amounts (see individual experiments below). The API and solvent were combined in a glass vial or jar. Jars were mixed using the jar mill, Turbula, or shaker at room temperature until homogeneous. LA is soluble in NMP or DMSO and can load higher concentrations (at least 40% w/w). After dissolving the API in the organic solvent, the bulk solution was manually filled into syringes and capped with a tip cap. The syringes used for filling were either 1.2 mL male polypropylene syringes, 1.2 mL male cyclic olefin copolymer syringes or 1 mL male cyclic olefin copolymer syringes. Filled syringes were then packaged in labeled foil pouches with a Syringe A (polymer-solvent solution) and a desiccant pack and the pouches were sealed. After filling the syringes with the formulations, they were terminally sterilized with an external radiation dose of 30 kGy from e-beam processing. After terminal sterilization, the syringes were stored under refrigerated conditions (e.g., 2-8° C.) or accelerated conditions (>25° C. see individual experiments).

- tipping point between solution and solid/gelled samples [1]: about 45 % LA
- solubility (loading) [2]: at least 40 % w/w
Compound: CCNC(=O)[C@@H]1CCCN1C(=O)[C@H](CCCNC(=N)N)NC(=O)[C@H](CC(C)C)NC(=O)[C@@H](CC(C)C)NC(=O)[C@H](Cc1ccc(O)cc1)NC(=O)[C@H](CO)NC(=O)[C@H](Cc1c[nH]c2ccccc12)NC(=O)[C@H](Cc1c[nH]cn1)NC(=O)[C@@H]1CCC(=O)N1 [LA, leuprolide acetate]
